Data from patent publication EP1057484A1, “CELL DEATH INHIBITORS” (priority 1998, dated 1999).

Tests used:
[1] = system: Porcine ovarian granulosa cells (POGC); assay: Test Example 2: cell death of terminally differentiated (FSH/LH) POGC on continued culture; assay type: cell-based; conditions: Sus scrofa, 168 h; 3 µM added 4 days after final medium refreshment; observation 7 days after addition; read-out: cells alive
Description: (§1) The ovarian granulosa cells are cells surrounding an ovum, and proliferate and differentiate by the action of follicle stimulating hormone (FSH) and luteinizing hormone (LH) in response to sexual cycles, during which they acquire a progesterone-producing ability. Unovulatory follicles finally undergo apoptosis and disappear. The differentiation process can be mimicked following to a known method (Endocrinology, Vol. 136, p. 3470, 1995) as shown in the following in vitro experiment. Furthermore, when they are continuously cultured with maintaining final differentiation ability, they are observed to undergo apoptosis as described below. Namely, porcine ovaries were rinsed with PBS buffer, and porcine ovarian granulosa cells (POGC) were collected by aspiration from antral follicles with a syringe. Cell fraction was recovered as a precipitate by centrifugation of the suspension. The operation of suspending the cell fraction into PBS buffer and subjecting the resulting suspension to centrifugation was repeated three times to wash the cells. […] Upon continued culture, these completely differentiated cells undergo cell death synchronously after about 5 days, the cell death being monitored by a trypan blue exclusion test and a MTT (3-(4,5-dimethylthiazol-2-yl)-2,5-diphenyltetrazolium bromide) test.

[2] = system: Porcine ovarian granulosa cells (POGC); assay: Test Example 3: PGF2α-induced cell death of terminally differentiated POGC; assay type: cell-based; conditions: Sus scrofa; 3 µM added prior to PGF2α (50 µg/mL); observation after 16 hour; read-out: survival of the cells
Description: as §1, with “test. […]” for “test.”

POGC [3] = assay: Test Example 4: cell death of POGC in long term serum-free, hormone-free culture; assay type: cell-based, porcine; conditions: Sus scrofa, 168 h, observation at 7 days after the death of cells treated with no test compound, read-out: survival of the cells
Description: as §1, with “test. […]” for “test.”

POGC [4] = assay: Test Example 5: staurosporine-induced cell death of completely differentiated POGC; assay type: cell-based, porcine; conditions: Sus scrofa; 3 µM added prior to staurosporine (3 nM); observation after 68 hours; read-out: cells alive
Description: as §1, with “test. […]” for “test.”

undifferentiated POGC [5] = assay: Test Example 6: hydrogen peroxide-induced cell death of undifferentiated POGC; assay type: cell-based, porcine; conditions: Sus scrofa; 3 µM added prior to hydrogen peroxide (100 µm); observation after 24 hours; read-out: cells alive
cerebellar granule cells [6] = assay: Test Example 10: hydrogen peroxide-induced death of cerebellar granule cells; assay type: cell-based, rats; conditions: Rattus norvegicus, read-out: cells alive
Description: (§2) According to a known method (A Dissection and Tissue Culture Manual of the Nervous System, p. 211, 1989, Alan R, Liss, Inc.), cerebellar granule cells were isolated from the cerebellum of 7 days old rats and cultured. Namely, after conducting isolation procedures described in the above literature, the resulting cells were resuspended in DMEM containing 10% fetal bovine serum, 25 mM KCl and 2 mM glutamine, and seeded in poly-lysine coated plates. After the cells were cultured in a CO2 incubator for 48 hours according to a conventional method, cytosine-1-β-D(+)-arabinofuranoside (Ara-C) (10 µM) was added thereto, and the cell was continued to culture. The following experiments were conducted with the cells of 7 to 14 days old from the start day of the culture, the cells having completed neurite extension sufficiently. […] Furthermore, experiments were conducted by increasing a concentration of hydrogen peroxide to 300 µM. In the cases that Test Compound 18 (10 µM), Test Compound 19 (10 µM), or Test Compound 20 (10 µM) were added, about 90%, 90%, and 70% of the cells were alive, respectively, on observations after 16 hours.

erythrocytes = assay: Test Example 13: hydrogen peroxide-induced death of erythrocytes; assay type: cell-based; conditions: Homo sapiens, Erythrocyte, read-out: ratios of dead erythrocytes (dark ghost cells)
Description: After human blood (2 mL) was centrifuged at 1000 rpm for 5 min, the resulting cell pellets containing erythrocytes were washed three times with a DMEM medium and the cells were resuspended in the same medium (15 mL) (about 5 × 10^8 cells/mL). Ten µL of this suspension was added with 10% FCS/DMEM (10 mL), and the cells were plated in 48 well plates (500 µL/well). When hydrogen peroxide (300 µM) was added to the erythrocyte culture solution and the cells were cultured for 24 hours, all erythrocytes were dead on observations under a light microscopy (all erythrocytes were subjected to shape changes from a bright, round and concave shape into a dark hemolytic ghost through multiple shape changes). On the other hand, Test Compound 14 (30 µM), Test Compound 18 (10 µM), Test Compound 19 (20 µM) or Test Compound 20 (20 µM) was added prior to the hydrogen peroxide addition.

[7] = system: Primary cultured fibroblasts; assay: Test Example 14: SNP-induced apoptosis of primary cultured fibroblasts; assay type: cell-based, mice; conditions: Mus musculus, Fibroblast, observation after 48 hours, read-out: cells alive
Description: Primary cultured fibroblasts were prepared from mice according to a known method (Kinou Saibou no Bunri to Baiyou (Isolation and Culture of Functional Cells), Maruzen, 1987, p. 59). Namely, after removing skin hairs from mice with shaving foam followed by disinfection with a chlorhexidine gluconate solution, tiny skin fragments were isolated. […] After migration of fibroblasts became obvious, the slide glasses and the residual skin fragments were removed, and the culture was continued. […] In the cases that Test Compound 14 (5 µM) or Test Compound 18 (2.5 µM) was added to the present culture system prior to the SNP addition, apoptosis in both cultures was inhibited and more than 95% of cells were alive on an observation after 48 hours.

[8] = system: monolayer cells derived from the mouse kidneys; assay: Test Example 15: SNP-induced apoptosis of monolayer cells derived from kidneys; assay type: cell-based, mice; conditions: observation after 48 hours, read-out: cells alive
Description: Kidneys isolated from mice were dissected into minute pieces in a serum-free DMEM, which were dispersed with trypsin/EDTA treatment. After leaving it for a while, the supernatant was discarded, and the pellet was transferred to a culture plate and cultured in DMEM containing 10% fetal bovine serum in a CO2 incubator according to a conventional manner. After tissues were adhered onto a culture plate and subsequently cell colonies got formed, the tissues were removed and the colonies were subcultured in the same medium. The resulting monolayer cells derived from the mouse kidneys were morphologically different from fibroblasts. […] Then, Test Compound 14 (5 µM) or Test Compound 18 (2.5 µM) was added prior to the SNP addition and the cells were observed.

[9] = system: Porcine Ovarian Granulosa Cells; assay: Test Example 7: inhibition of SNP-induced apoptosis of undifferentiated POGC; assay type: cell-based; conditions: Sus scrofa; for complete inhibition of apoptosis; SNP 0.5 mM; cells observed after 48 hours; read-out: Minimum effective concentration
4B2 cells = assay: Test Example 9: SNP-induced apoptosis of 4B2 granulosa cell line; assay type: cell-based; conditions: Mus musculus; 10 µM added prior to SNP (0.5 mM); observation after 24 hours; read-out: cells alive
Description: Mouse granulosa cells were transfected with SV40 T antigen and cDNA of steroidogenic factor-1 (SF-1/Ad4BP) to establish a cell line, named 4B2. The cell secretes progesterone in response to protein kinase-A. The 4B2 cells were cultured in 48-well culture plates until subconfluency in DMEM containing 10% fetal bovine serum in a CO2 incubator according to a conventional manner. After the medium was switched to DMEM containing 2% fetal bovine serum, SNP (0.5 mM) was added thereto. […] Then, prior to the addition of SNP, Test Compound 13, 14, 17, 20, 24 or 25 (10 µM each) was added to the present medium and observations on cells were made after 24 hours.

cerebellar granule cells [10] = assay: Test Example 11: SNP-induced death of cerebellar granule cells; assay type: cell-based, rats; conditions: Rattus norvegicus; 10 µM added prior to SNP (1.5 µM); observation after 12 hours; read-out: cells alive
cerebellar granule cells [11] = assay: Test Example 12: bilirubin-induced death of cerebellar granule cells; assay type: cell-based, rats; conditions: Rattus norvegicus; 10 µM added prior to bilirubin (100 µg/ml); observation after 18 hours; read-out: cells alive
Description: as §2
Neonatal jaundice is known to induce severe brain damages by way of abnormally high concentration of bilirubin in the body. […]

undifferentiated POGC [12] = assay: Test Example 8: bilirubin-induced cell death of undifferentiated POGC; assay type: cell-based, porcine; conditions: Sus scrofa, 96 h; 10 µM added prior to bilirubin (30 µg/mL); observation after 4 days; read-out: survival of the cells
[13] = 10 µM, hydrogen peroxide 300 µM, observation after 16 hours
[14] = 2.5 µM added prior to SNP (0.5 mM)
[15] = 5 µM added prior to SNP (0.5 mM)

CN(C)CCCn1cc(C2=C(c3c[nH]c4ccccc34)C(=O)NC2=O)c2ccccc21 [Compound 18]
viability at 3 µM [1]: > 95%
viability at 3 µM [2]: > 95%
viability at 3 µM (POGC [3]): > 95%
viability at 3 µM (POGC [4]): > 95%
viability at 3 µM (undifferentiated POGC [5]): > 95%
viability at 10 µM (cerebellar granule cells [6]; [13]): ~90%
cytotoxicity at 10 µM (erythrocytes; 24 h): 20%
viability at 2.5 µM [7, 14]: > 95%
viability at 2.5 µM [8, 14]: > 95%

CC(=O)NCCCn1cc(C2=C(c3c[nH]c4ccccc34)C(=O)N(C)C2=O)c2ccccc21 [Compound 20]
minimal effective concentration [9]: 7 µM
viability at 10 µM (4B2 cells): > 95%
viability at 10 µM (cerebellar granule cells [6]; [13]): ~70%
viability at 10 µM (cerebellar granule cells [10]): > 95%
viability at 10 µM (cerebellar granule cells [11]): ~80%
cytotoxicity at 20 µM (erythrocytes; 20 µM added prior to hydrogen peroxide (300 µM), observation after 24 hours): 10%

Cc1cccc2c(C3=C(c4c[nH]c5c(C)cccc45)C(=O)N(C)C3=O)c[nH]c12 [Compound 25]
minimal effective concentration [9]: 0.3 µM
viability at 10 µM (undifferentiated POGC [12]): 95%
viability at 10 µM (4B2 cells): > 95%
viability at 10 µM (cerebellar granule cells [6]; 10 µM added prior to hydrogen peroxide (10 µM), observation after 12 hours): > 95%
viability at 10 µM (cerebellar granule cells [10]): > 95%

CN1C(=O)C(c2c[nH]c3ccccc23)=C(c2c[nH]c3ccccc23)C1=O
viability at 10 µM (undifferentiated POGC [12]): 50%
viability at 10 µM (4B2 cells): > 95%
viability at 10 µM (cerebellar granule cells [10]): > 95%
cytotoxicity at 30 µM (erythrocytes; 30 µM added prior to hydrogen peroxide (300 µM), observation after 24 hours): 20%
viability at 5 µM [7, 15]: > 95%
viability at 5 µM [8, 15]: > 95%
